Test results from ChEMBL document CHEMBL4602703, “Lead Optimization of a Pyrrole-Based Dihydroorotate Dehydrogenase Inhibitor Series for the Treatment of Malaria” (J Med Chem, 2020).
pEC50, pIC50: −log10 of the molar value.

Experiments:
Albumin = Albumin (Homo sapiens, UniProt P02768); assay: Binding affinity to albumin (unknown origin) by chromatographic method; type: ADME; conditions: albumin, read-out: PB (converted)
[1] = Intrinsic clearance in mouse liver microsomes assessed as per mg protein; type: ADME, Microsome; conditions: microsomes
[2] = Intrinsic clearance in human liver microsomes assessed as per mg protein; type: ADME, Microsome
Plasmodium falciparum = assay: microbe, parasite or virus in culture; conditions: 3D7, 72 h
physchem = conditions: octanol/water, pH 7.4
[3] = target: Dihydroorotate dehydrogenase (quinone), mitochondrial (Homo sapiens, UniProt Q02127)
[4] = Inhibition of N-terminal His6-tagged Plasmodium falciparum DHODH expressed in Escherichia coli BL21(DE3) cells using L-DHO as substrate by DCIP dye based assay

Dihydroorotate dehydrogenase (quinone), mitochondrial, sequence (Q02127 whole entry): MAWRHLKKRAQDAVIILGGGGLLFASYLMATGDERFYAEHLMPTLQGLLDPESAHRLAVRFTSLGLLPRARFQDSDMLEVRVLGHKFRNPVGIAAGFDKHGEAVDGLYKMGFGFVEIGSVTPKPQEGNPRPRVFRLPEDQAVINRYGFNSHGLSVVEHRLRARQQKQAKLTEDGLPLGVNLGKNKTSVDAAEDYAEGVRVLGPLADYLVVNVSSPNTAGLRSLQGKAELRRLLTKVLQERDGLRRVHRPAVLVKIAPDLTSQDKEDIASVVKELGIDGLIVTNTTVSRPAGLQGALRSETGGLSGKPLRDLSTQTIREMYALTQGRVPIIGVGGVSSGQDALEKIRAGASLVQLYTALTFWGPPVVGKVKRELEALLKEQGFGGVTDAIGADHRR
Albumin, sequence (P02768 whole entry): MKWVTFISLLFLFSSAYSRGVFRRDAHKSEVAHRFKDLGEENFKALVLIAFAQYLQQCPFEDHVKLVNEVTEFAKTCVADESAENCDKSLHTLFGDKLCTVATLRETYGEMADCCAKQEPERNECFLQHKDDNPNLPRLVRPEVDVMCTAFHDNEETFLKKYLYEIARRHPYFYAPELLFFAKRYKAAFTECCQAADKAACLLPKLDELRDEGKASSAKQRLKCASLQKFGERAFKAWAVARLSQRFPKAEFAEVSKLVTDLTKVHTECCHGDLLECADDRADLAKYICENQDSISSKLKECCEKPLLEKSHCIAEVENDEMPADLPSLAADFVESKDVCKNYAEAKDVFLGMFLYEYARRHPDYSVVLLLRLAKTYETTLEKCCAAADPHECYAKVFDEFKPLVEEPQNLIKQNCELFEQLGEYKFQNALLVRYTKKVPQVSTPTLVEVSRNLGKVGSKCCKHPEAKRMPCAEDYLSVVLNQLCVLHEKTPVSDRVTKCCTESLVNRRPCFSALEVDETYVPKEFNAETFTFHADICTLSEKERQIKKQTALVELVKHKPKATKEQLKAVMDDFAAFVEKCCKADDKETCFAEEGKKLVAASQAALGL

Compound	fraction unbound (Albumin)	microsomal CLint [1] [µL/min/mg]	microsomal CLint [2] [µL/min/mg]	pEC50 (Plasmodium falciparum)	logD (physchem)	pIC50 [3]	pIC50 [4]
CCNC(=O)c1[nH]c(C)c(Cc2ccc(C(F)(F)F)nc2)c1C	0.229	54	70	7.48	2.8	< 4.00	7.27
Cc1c(Cc2ccc(C(F)(F)F)cc2)c[nH]c1C(=O)NC1CC1	0.029	173	19	7.74	3.7	< 4.00	7.32
O=C(NC1CC1)c1cc(Cc2ccc(C(F)(F)F)nc2)c[nH]1	0.333	96	31	5.77 to 6.30	2.6	< 4.00	5.60
Cc1c(Cc2cnc(C(F)(F)F)nc2)c[nH]c1C(=O)NC1CC1	–	–	< 7	6.41	2.5	< 4.00	–
Cc1c(Cc2ccc(C(F)(F)F)nc2)c[nH]c1C(=O)N1CCC1	0.341	192	< 7	7.09	2.7	< 4.00	6.77
CCCNC(=O)c1[nH]c(C)c(Cc2ccc(C(F)(F)F)cc2)c1C	–	–	–	6.96	–	< 4.00	6.52
CCOC(=O)c1[nH]cc(Cc2ccc(C(F)(F)F)cc2OC)c1C	–	–	–	6.09	–	–	5.96
CCOC(=O)c1c(C)c(Cc2ccc(C(F)(F)F)cc2)c(C)n1C	–	–	–	–	–	–	< 4.00
CCOC(=O)c1[nH]cc(Cc2ccc(C(F)(F)F)cc2F)c1C	–	–	–	7.55	–	< 4.00	7.46
Cc1[nH]c(C(=O)NC2CC2)c(C)c1Cc1ccc(C(F)(F)F)nc1	0.172	33	15	7.44	3	< 4.00	–
Cc1c(Cc2cccnc2)c[nH]c1C(=O)NC1CC1	0.268	138	19	< 5.00	–	–	< 4.00
CCOC(=O)c1[nH]cc(Cc2ccc(C#N)nc2)c1C	–	–	–	6.70	–	–	6.20
Cc1c(C(=O)NC2CC2)[nH]c(C(F)(F)F)c1Cc1ccc(C(F)(F)F)nc1	–	–	–	6.11	–	–	5.80
Cc1[nH]c(C(=O)NC(C)C)cc1Cc1ccc(C(F)(F)F)nc1	–	–	–	5.72	–	–	5.55
Cc1c(Cc2ccc(C(F)(F)F)cc2F)c[nH]c1C(=O)NC1CC1	0.03	184	15	7.80	3.8	< 4.00	7.36
Cc1c(Cc2c(F)cc(C(F)(F)F)cc2F)c[nH]c1C(=O)NC1CC1	–	–	–	6.38	–	–	5.92
Cc1[nH]c(C(=O)NC2CC2)c(C)c1Oc1ccc(C(F)(F)F)nc1	0.573	22	8	6.54	1.7	< 4.00	6.10
Cc1[nH]c(C(=O)NC2CC2)cc1Cc1ccc(C(F)(F)F)nc1	0.274	41	36	5.44	2.8	< 4.00	5.00
Cc1[nH]c(C(=O)NC2CC2)c(C)c1C(=O)c1ccc(C(F)(F)F)cn1	0.496	24	8	4.70 to 5.00	2.4	–	< 4.00
CCOC(=O)c1[nH]cc(Cc2ccc(C(F)(F)F)cc2Cl)c1C	–	–	–	7.54	–	< 4.00	7.38
CCN(CC)C(=O)c1[nH]c(C)c(Cc2ccc(C(F)(F)F)nc2)c1C	–	–	–	< 5.00	–	–	4.89

Compound	fraction unbound (Albumin)	microsomal CLint [1] [µL/min/mg]	microsomal CLint [2] [µL/min/mg]	pEC50 (Plasmodium falciparum)	logD (physchem)	pIC50 [3]	pIC50 [4]
Cc1[nH]c(C(=O)NC2CN(C)C2)cc1Cc1ccc(C(F)(F)F)nc1	–	–	–	< 4.70	–	–	< 4.00
CCCC(=O)c1[nH]cc(Cc2ccc(C(F)(F)F)nc2)c1C	–	–	–	7.19	–	< 4.00	7.01
Cc1c(C(O)c2ccc(C(F)(F)F)nc2)c[nH]c1C(=O)NC1CC1 (racemic)	0.105	40	20	7.36	3.2	< 4.00	7.13
Cc1[nH]c(C(=O)NC2CCC2)c(C)c1Cc1ccc(C(F)(F)F)cn1	–	–	–	6.17 to 6.33	–	< 4.00	6.39
Cc1c(Cc2ccc(C(F)(F)F)nc2)c[nH]c1C(=O)N1CCCC1	–	–	–	5.32	–	–	5.01
COCc1c(Cc2ccc(C(F)(F)F)nc2)c[nH]c1C(=O)NC1CC1	–	–	–	6.62	–	< 4.00	6.35
CCCNC(=O)c1[nH]c(C)c(Cc2ccc(C(F)(F)F)nc2)c1C	0.155	64	172	7.33	3.2	< 4.00	7.14
CCOC(=O)c1[nH]c(C)c(Cc2cccc(OCC)c2)c1C	–	–	–	6.28	–	< 4.00	6.08
CCOC(=O)c1[nH]cc(Cc2ccc(C(F)(F)F)cc2)c1C	–	–	–	7.22	–	< 4.00	6.89
CCOC(=O)c1[nH]c(C)c(Cc2ccc(C(F)(F)F)cn2)c1C	–	–	–	7.00	–	< 4.00	6.52
Cc1[nH]c(C(=O)NC2CCN(C)CC2)cc1Cc1ccc(C(F)(F)F)nc1	–	–	–	< 5.00	–	–	< 4.00
Cc1[nH]c(C(=O)NC2CCC2)c(C)c1Cc1ccc(C(F)(F)F)nc1	–	–	–	7.18	–	< 4.00	7.14 to 7.38
Cc1c(Cc2ccc(C(F)(F)F)nc2)c[nH]c1C(=O)C1CC1	–	–	–	8.00	–	< 4.00	7.74
Cc1c(Cc2ccc(C(F)(F)F)nc2)c[nH]c1C(=O)NC1(C(F)(F)F)CC1	–	–	–	5.41	–	–	5.03
Cc1[nH]c(C(=O)NC2CCNCC2)cc1Cc1ccc(C(F)(F)F)nc1	–	–	–	< 5.00	–	–	< 4.00
COc1cc(C(F)(F)F)ccc1Cc1c[nH]c(C(=O)NC2CC2)c1C	–	–	–	6.59	–	< 4.00	6.96
CCCCNC(=O)c1[nH]c(C)c(Cc2ccc(C(F)(F)F)cc2)c1C	–	–	–	6.15	–	< 4.00	5.00
CCOC(=O)c1[nH]c(C)c(Cc2ccc(C(C)C)cc2)c1C	–	–	–	6.33	–	< 4.00	6.24
O=C(NC1CC1)c1[nH]cc(Cc2ccc(C(F)(F)F)nc2)c1CO	–	–	–	5.92	–	–	5.37
CCOC(=O)c1[nH]c(C)c(Cc2ccc(OCC)cc2)c1C	–	470	188	6.60 to 6.64	4.5	< 4.00	–
Cc1[nH]c(C(=O)NC2CC2)c(C)c1Cc1ccc(C(F)(F)F)cn1	–	–	–	6.47	–	–	6.36

Compound	fraction unbound (Albumin)	microsomal CLint [1] [µL/min/mg]	microsomal CLint [2] [µL/min/mg]	pEC50 (Plasmodium falciparum)	logD (physchem)	pIC50 [3]	pIC50 [4]
Cc1[nH]c(C(=O)O)c(C)c1Cc1ccc(C(F)(F)F)cc1	–	–	–	< 5.00	–	–	–
CCOC(=O)c1[nH]c(C)c(Cc2cc(OC)cc(OC)c2)c1C	–	–	–	5.00	–	< 4.00	5.64
Cc1[nH]c(C(=O)NC2CCOCC2)cc1Cc1ccc(C(F)(F)F)nc1	–	–	–	< 5.00	–	–	< 4.00
Cc1[nH]c(C(=O)NC(C)(C)C)cc1Cc1ccc(C(F)(F)F)nc1	–	–	–	5.46	–	–	5.24
CCNC(=O)c1[nH]c(C)c(Cc2ccc(C(F)(F)F)cc2)c1C	–	–	–	7.29	–	< 4.00	6.85
Cc1c(Cc2ccc(C(F)(F)F)nc2)c[nH]c1C(=O)N1CC(F)C1	–	145	7	7.29	–	< 4.00	6.92
CCOC(=O)c1[nH]cc(Cc2c(F)cc(C(F)(F)F)cc2F)c1C	–	–	–	< 5.00	–	–	< 4.52
Cc1c(Cc2ccc(C(F)(F)F)nc2)c[nH]c1C(=O)NC1CC(F)C1 (stereo unspecified)	–	–	–	6.77	–	–	6.49
Cc1[nH]c(C(=O)N(C)C)c(C)c1Cc1ccc(C(F)(F)F)nc1	–	–	–	< 5.00	–	–	< 4.52
Cc1[nH]c(C(=O)NC2CC2)cc1Cc1cnc(C(F)(F)F)nc1	0.555	8	< 7	< 5.00	2.5	–	< 4.00
Cc1[nH]c(C(=O)NC2CNC2)cc1Cc1ccc(C(F)(F)F)nc1	–	–	–	< 4.70	–	–	< 4.00
Cc1[nH]c(C(=O)N2CCC2)c(C)c1Cc1ccc(C(F)(F)F)nc1	0.228	53	31	6.89	2.9	–	6.85
Cc1c(Cc2ccc(C(F)(F)F)nc2)c[nH]c1C(=O)NC(C)(C)C	–	–	–	7.29	–	< 4.00	6.96
Cc1[nH]c(C(=O)N2CCC2)c(C)c1Cc1ccc(C(F)(F)F)cn1	–	–	–	6.00	–	< 4.00	5.74
Cc1[nH]c(C(=O)N2CCCCC2)cc1Cc1ccc(C(F)(F)F)nc1	0.125	93	173	< 4.70	3.5	–	< 4.00
Cc1[nH]c(C(=O)N2CCCC2)cc1Cc1ccc(C(F)(F)F)nc1	0.185	138	226	< 5.00	3.2	–	< 4.00
CCOC(=O)c1[nH]c(C)c(C(=O)c2ccc(C(F)(F)F)cn2)c1C	–	–	–	5.19	–	–	4.68
Cc1c(Cc2ccc(C(F)(F)F)nc2)c[nH]c1C(=O)NS(C)(=O)=O	–	–	–	< 4.00	–	–	< 4.00
Cc1c(Cc2ccc(C(F)(F)F)nc2)c[nH]c1C(=O)NC1CC(F)(F)C1	–	–	–	5.89	–	–	5.44
Cc1c(Cc2ccc(C(F)(F)F)nc2)c[nH]c1C(=O)NC(C)C	–	–	–	7.89	–	< 4.00	7.10
